In PMC8306904, “Discovery of New Hits as Antitrypanosomal Agents by In Silico and In Vitro Assays Using Neolignan-Inspired Natural Products from Nectandra leucantha” (Molecules, 2021):
Where two headings read alike, the source gives them in different places.

Columns and labels:
[1] = test system: amastigote forms of T. cruzi; test: Activity against amastigote forms of T. cruzi in infected macrophages; format: cell-based, Trypanosoma cruzi; settings: for SI: selectivity index (ratio CC50/IC50): CC50 against NCTC cells/IC50 against amastigotes
Protocol: To perform the experiments, peritoneal macrophages from BALB/c mice were infected with trypomastigotes forms of T. cruzi. The macrophages obtained from the peritoneal cavity of BALB/c mice were seeded on a 16-well chamber slide (NUNC plate, Merck; 1 × 10^5/well) and incubated for 24 h at 37 °C in a 5% CO2-humidified incubator. The trypomastigotes LLC-MK2 were counted and used to infect the macrophages (parasite:macrophage ratio = 10:1). After 2 h incubation at 37 °C in a 5% CO2-humidified incubator, free parasites were removed by 1× washing with the medium. […] Benznidazole was used as the standard drug. At the end of the assay, slides were fixed with MeOH, stained with Giemsa, and counted using light microscopy. The IC50 values were calculated as previously reported.

[2] = test system: amastigote forms of T. cruzi; set-up: method as in PMID 28864277, PMID 31103897, PMID 33047947; settings: read-out: IC50, 50% inhibitory concentration against amastigote forms of T. cruzi; intracellular amastigotes; compounds 9–33 and 36–50; ref [8],[10],[26]; cited from earlier work
NCTC cells-clone L929 = test system: NCTC cells-clone L929; set-up: method as in PMID 28864277, PMID 31103897, PMID 33047947; settings: read-out: CC50, 50% cytotoxic concentration in NCTC cells (ATCC, clone 929); compounds 9–33 and 36–50; ref [8],[10],[26]; cited from earlier work
[3] = Cytotoxicity against mammalian cells (MTT); format: cell-based; settings: mouse, NCTC clone L929 cells (murine conjunctive cells)
Protocol: The optical density was determined using FilterMax F5 (Molecular Devices) at 570 nm. We calculated the selectivity index (SI) values using the following equation: CC50 against NCTC cells/IC50 against amastigotes.

[4] = Trypanosoma cruzi, Macrophage, -log IC50 against amastigotes, Table 1 and Figure 7, read-out: pIC50 Experimental (converted)
[5] = Trypanosoma cruzi, Macrophage, Table S2, -log IC50, supplement numbering, read-out: pIC50 (converted)
[6] = Trypanosoma cruzi, Peritoneal macrophage, in Mus musculus, 48 h, read-out: IC50, 50% inhibitory concentration against amastigote forms of T. cruzi, intracellular amastigotes in BALB/c peritoneal macrophages, 48 h, 30 to […]

COc1cc(CC(C)O)ccc1Oc1cc(CC(C)O)cc(OC)c1OC (stereo not drawn) [Compound 31]
SI: selectivity index (ratio CC50/IC50) [1]: >15.0
IC50 [1, 4]: 13.2 µM
IC50 [1, 5]: 28.2 µM
IC50 [2]: 13.3 ± 3.6 µM
CC50 (NCTC cells-clone L929): > 200 µM

C=CCc1ccc(Oc2cc(C(=O)C=C)cc(OC)c2OC(C)=O)c(OC)c1 [Compound 7, 4-Acetoxy-5-methoxy-3-[3′-methoxy-1′-(8′-propenyl)phenoxy]-1-(7-oxo-8-propenyl)benzene]
pIC50 Experimental ([1]; -log IC50 against amastigotes, Table 1 and Figure 7): 5.38
SI: selectivity index (ratio CC50/IC50) [1]: >47.6
IC50 [1, 4]: 4.27 µM
IC50 ([1]; Trypanosoma cruzi, Macrophage, Table S1, test set, supplement numbering, read-out: Exp. pIC50 (converted)): 9.55 µM
IC50 [1, 6]: 4.3 µM
IC50 ([1]; read-out: IC50, 50% inhibitory concentration against amastigote forms of T. cruzi, intracellular amastigotes in BALB/c peritoneal macrophages, 48 h, 30 to […]): 4.2 ± 1.1 µM
CC50 at 48 h [3]: > 200 µM

C=CCc1ccc(Oc2cc(CCC)cc(OC)c2OCc2ccc(OC)cc2)c(OC)c1 [Compound 41]
SI: selectivity index (ratio CC50/IC50) [1]: >14.9
IC50 [1, 4]: 13.5 µM
IC50 [2]: 13.4 ± 5.4 µM
CC50 (NCTC cells-clone L929): > 200 µM

COc1cc(CC2CO2)ccc1Oc1cc(CC2CO2)cc(OC)c1OC (stereo not drawn) [Compound 25]
IC50 [1, 4]: > 30 µM
IC50 [2]: > 30 µM
CC50 (NCTC cells-clone L929): > 200 µM

C=CCc1cc(OC)c(OC)c(Oc2ccc(CCC)cc2OC)c1 [Compound 38]
SI: selectivity index (ratio CC50/IC50) [1]: >17.1
IC50 [1, 4]: 11.7 µM
IC50 [2]: 11.7 ± 7 µM
CC50 (NCTC cells-clone L929): > 200 µM

C=CCc1ccc(Oc2cc(C(=O)C=C)cc(OC)c2OC)c(OC)c1 [Compound 6, 4,5-dimethoxy-3-[3′-methoxy-1′-(8′-propenyl)phenoxy]-1-(7-oxo-8-propenyl)benzene]
SI: selectivity index (ratio CC50/IC50) [1]: >7.6
IC50 [1, 4]: 26.3 µM
IC50 [1, 5]: 30.2 µM
IC50 [1, 6]: 26.3 ± 1.3 µM
CC50 at 48 h [3]: > 200 µM

C=CCc1ccc(Oc2cc(CC=C)cc(OC)c2OCc2ccc(OC)cc2)cc1 [Compound 46]
SI: selectivity index (ratio CC50/IC50) [1]: >18.2
IC50 [1, 4]: 11.5 µM
IC50 [1, 5]: 11 µM
IC50 [2]: 11 ± 2.3 µM
CC50 (NCTC cells-clone L929): > 200 µM

C=CCc1cc(OC)cc(Oc2cc(CC=C)cc(OC)c2OS(=O)(=O)C(F)(F)F)c1 [Compound 33]
IC50 [1, 4]: > 30 µM
IC50 [1, 5]: 4.27 µM
IC50 [2]: > 30 µM
CC50 (NCTC cells-clone L929): > 200 µM

C=CCc1cc(OC)c(OC)c(Oc2ccccc2OC)c1 [Compound 47]
IC50 [1, 4]: > 30 µM
IC50 [2]: > 30 µM
CC50 (NCTC cells-clone L929): > 200 µM

C=CCc1ccc(Oc2cc(C(=O)C=C)cc(OC)c2O)c(OC)c1 [Compound 5, 4-hydroxy-5-methoxy-3-[3′-methoxy-1′-(8′-propenyl)phenoxy]-1-(7-oxo-8-propenyl)benzene]
IC50 [1, 4]: > 30 µM
IC50 [1, 5]: 10 µM
IC50 [1, 6]: > 30 µM
CC50 at 48 h [3]: > 200 µM

C=CCc1ccc(Oc2cc(CC=C)cc(OC)c2O)cc1 [Compound 45]
SI: selectivity index (ratio CC50/IC50) [1]: 5.5
IC50 [1, 4]: 22.4 µM
IC50 [2]: 22.5 ± 18.8 µM
CC50 (NCTC cells-clone L929): 123 ± 9.8 µM

O=C(Cn1ccnc1[N+](=O)[O-])NCc1ccccc1 [Bzd, benznidazole, reference compound]
SI: selectivity index (ratio CC50/IC50) [1]: 34.5
IC50 [1, 4]: 5.5 µM
IC50 [1, 6]: 5.5 ± 1.4 µM
CC50 at 48 h [3]: 190 ± 13.5 µM

C=CCOc1c(OC)cccc1Oc1ccc(CC=C)cc1OC [Compound 49]
IC50 [1, 4]: > 30 µM
IC50 [2]: > 30 µM
CC50 (NCTC cells-clone L929): > 200 µM

C=CCc1cc(OC)c(OCc2ccc(OC)cc2)c(Oc2ccccc2OC)c1 [Compound 48]
IC50 [1, 4]: > 30 µM
IC50 [2]: > 30 µM
CC50 (NCTC cells-clone L929): > 200 µM

CCCc1cc(OC)cc(Oc2ccc(CCC)cc2OC)c1 [Compound 35]
SI: selectivity index (ratio CC50/IC50) [1]: >18.3
IC50 [1, 4]: 11 µM
IC50 [1, 6]: 10.9 ± 6.5 µM
CC50 at 48 h [3]: > 200 µM

C=CCc1ccc(Oc2cc([C@@H](O)C=C)cc(OC)c2O)c(OC)c1 [Compound 3, 1-[(7S)-hydroxy-8-propenyl]-3-[3′-methoxy-1′-(8′-propenyl)-phenoxy]-4-hydroxy-5-methoxybenzene]
IC50 [1, 4]: > 30 µM
IC50 [1, 6]: > 30 µM
CC50 at 48 h [3]: > 200 µM

C=CCc1cc(OC)c(OCc2ccc(OC)cc2)c(Oc2ccc(CCC)cc2OC)c1 [Compound 40]
SI: selectivity index (ratio CC50/IC50) [1]: >23.3
IC50 [1, 4]: 8.51 µM
IC50 [2]: 8.6 ± 2.1 µM
CC50 (NCTC cells-clone L929): > 200 µM

C=CCc1ccc(Oc2cc(CCC)cc(OC)c2O)c(OC)c1 [Compound 37]
SI: selectivity index (ratio CC50/IC50) [1]: 1.4
IC50 [1, 4]: 10.5 µM
IC50 [2]: 10.5 ± 8.3 µM
CC50 (NCTC cells-clone L929): 14.2 ± 0.1 µM

C=CCc1ccc(Oc2cc(CC=C)cc(OC)c2OCCCCC)c(OC)c1 [Compound 8]
IC50 [1, 4]: > 30 µM
IC50 [1, 6]: > 30 µM
CC50 at 48 h [3]: > 200 µM

CCCc1ccc(Oc2cc(CCC)cc(OC)c2OC)c(OC)c1 [Compound 22]
IC50 [1, 4]: > 30 µM
IC50 [2]: > 30 µM
CC50 (NCTC cells-clone L929): > 200 µM

C=CCc1cc(OC)cc(Oc2ccc(CC=C)cc2OC)c1 [Compound 34]
SI: selectivity index (ratio CC50/IC50) [1]: >34.5
IC50 [1, 4]: 5.75 µM
IC50 [1, 6]: 5.8 ± 0.7 µM
CC50 at 48 h [3]: > 200 µM

C=CCc1ccc(Oc2cccc(OC)c2OC)c(OC)c1 [Compound 42]
SI: selectivity index (ratio CC50/IC50) [1]: >7.8
IC50 [1, 4]: 25.7 µM
IC50 [2]: 25.7 ± 12.2 µM
CC50 (NCTC cells-clone L929): > 200 µM

C=CCc1ccc(Oc2cc([C@@H](O)C=C)cc(OC)c2OC)c(OC)c1 [Compound 4, 1-[(7S)-hydroxy-8-propenyl]-3-[3′-methoxy-1′-(8′-propenyl)-phenoxy]-4,5-dimethoxybenzene]
SI: selectivity index (ratio CC50/IC50) [1]: >14.0
IC50 [1, 4]: 14.5 µM
IC50 [1, 5]: 7.94 µM
IC50 [1, 6]: 14.3 ± 1.9 µM
CC50 at 48 h [3]: > 200 µM

CCCOc1c(OC)cc(CCC)cc1Oc1ccc(CCC)cc1OC [Compound 18]
IC50 [1, 4]: > 30 µM
IC50 [1, 5]: 87.1 µM
IC50 [2]: > 30 µM
CC50 (NCTC cells-clone L929): > 200 µM
